From ChEMBL document CHEMBL4024791, “Identification of Morpholino-2H-pyrido[3,2-b][1,4]oxazin-3(4H)-ones as Nonsteroidal Mineralocorticoid Antagonists” (J Med Chem, 2018)
Converted amounts (≈) assume the structure as drawn.

Legend:
CYP1A2 = molecular target: T1, CYP1A2 (Homo sapiens, UniProt P05177); assay: Inhibition of CYP1A2 (unknown origin) at 3 uM; type: ADME
T1 sequence (P05177 whole entry): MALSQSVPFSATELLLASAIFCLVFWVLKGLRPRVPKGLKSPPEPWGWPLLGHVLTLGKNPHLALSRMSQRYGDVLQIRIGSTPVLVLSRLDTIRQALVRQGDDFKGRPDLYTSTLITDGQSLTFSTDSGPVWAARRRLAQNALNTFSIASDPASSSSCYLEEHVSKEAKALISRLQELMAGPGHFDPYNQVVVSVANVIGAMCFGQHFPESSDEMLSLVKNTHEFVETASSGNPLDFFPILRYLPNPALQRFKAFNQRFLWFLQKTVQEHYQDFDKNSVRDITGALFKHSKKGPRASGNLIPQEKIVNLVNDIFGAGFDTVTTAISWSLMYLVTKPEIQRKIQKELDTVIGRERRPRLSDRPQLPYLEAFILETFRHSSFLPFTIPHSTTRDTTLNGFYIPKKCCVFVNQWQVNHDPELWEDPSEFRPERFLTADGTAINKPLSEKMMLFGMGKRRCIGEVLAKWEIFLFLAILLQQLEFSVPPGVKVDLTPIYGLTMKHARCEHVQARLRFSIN

[1] = molecular target: T2, Mineralocorticoid receptor (Homo sapiens, UniProt P08235)
T2 sequence (P08235 whole entry): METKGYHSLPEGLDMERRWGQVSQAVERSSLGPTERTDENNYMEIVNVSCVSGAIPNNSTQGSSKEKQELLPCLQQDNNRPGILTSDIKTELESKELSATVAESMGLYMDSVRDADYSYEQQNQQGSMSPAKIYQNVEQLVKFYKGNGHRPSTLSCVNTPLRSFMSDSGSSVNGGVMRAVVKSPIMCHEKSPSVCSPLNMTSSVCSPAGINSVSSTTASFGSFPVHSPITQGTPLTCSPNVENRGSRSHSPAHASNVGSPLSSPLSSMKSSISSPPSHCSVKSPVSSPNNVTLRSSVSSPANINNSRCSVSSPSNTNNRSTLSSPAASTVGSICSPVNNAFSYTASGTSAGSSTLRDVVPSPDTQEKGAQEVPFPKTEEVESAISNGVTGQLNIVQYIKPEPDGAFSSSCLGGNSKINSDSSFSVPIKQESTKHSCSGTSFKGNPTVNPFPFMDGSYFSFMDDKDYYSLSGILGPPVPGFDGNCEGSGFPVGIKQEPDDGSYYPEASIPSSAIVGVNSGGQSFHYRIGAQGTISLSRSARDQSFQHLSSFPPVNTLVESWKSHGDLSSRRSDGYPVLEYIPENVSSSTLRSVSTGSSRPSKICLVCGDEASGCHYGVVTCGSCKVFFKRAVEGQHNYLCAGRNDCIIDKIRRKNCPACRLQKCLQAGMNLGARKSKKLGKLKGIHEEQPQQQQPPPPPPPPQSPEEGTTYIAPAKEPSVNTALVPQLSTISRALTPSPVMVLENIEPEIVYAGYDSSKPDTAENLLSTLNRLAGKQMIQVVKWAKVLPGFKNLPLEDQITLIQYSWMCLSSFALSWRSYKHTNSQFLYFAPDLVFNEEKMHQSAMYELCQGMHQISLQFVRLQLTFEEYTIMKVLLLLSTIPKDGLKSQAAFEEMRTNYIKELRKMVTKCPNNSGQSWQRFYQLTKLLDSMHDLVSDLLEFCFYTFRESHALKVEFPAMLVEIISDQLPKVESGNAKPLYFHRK
Description: Displacement of [3H]-aldosterone from human GST-tagged MR ligand binding domain after 4 hrs by liquid scintillation counting

[2] = Intrinsic clearance in rat liver microsomes
[3] = Intrinsic clearance in human liver microsomes
hERG (KCNH2) = hERG (KCNH2) (Homo sapiens, UniProt Q12809); assay: Displacement of [3H]-dofetilide from human ERG at 10 uM; conditions: probe [3H]-dofetilide
[4] = Fraction unbound in human plasma; type: ADME, cell-free
[5] = Thermodynamic solubility of the compound in phosphate buffered saline at pH 6.5; type: physicochemical; conditions: read-out: Therm_solubility
Androgen receptor = molecular target: T3, Androgen receptor (Homo sapiens, UniProt P10275); assay: Binding affinity to AR (unknown origin); type: ADME
T3 sequence (P10275 whole entry): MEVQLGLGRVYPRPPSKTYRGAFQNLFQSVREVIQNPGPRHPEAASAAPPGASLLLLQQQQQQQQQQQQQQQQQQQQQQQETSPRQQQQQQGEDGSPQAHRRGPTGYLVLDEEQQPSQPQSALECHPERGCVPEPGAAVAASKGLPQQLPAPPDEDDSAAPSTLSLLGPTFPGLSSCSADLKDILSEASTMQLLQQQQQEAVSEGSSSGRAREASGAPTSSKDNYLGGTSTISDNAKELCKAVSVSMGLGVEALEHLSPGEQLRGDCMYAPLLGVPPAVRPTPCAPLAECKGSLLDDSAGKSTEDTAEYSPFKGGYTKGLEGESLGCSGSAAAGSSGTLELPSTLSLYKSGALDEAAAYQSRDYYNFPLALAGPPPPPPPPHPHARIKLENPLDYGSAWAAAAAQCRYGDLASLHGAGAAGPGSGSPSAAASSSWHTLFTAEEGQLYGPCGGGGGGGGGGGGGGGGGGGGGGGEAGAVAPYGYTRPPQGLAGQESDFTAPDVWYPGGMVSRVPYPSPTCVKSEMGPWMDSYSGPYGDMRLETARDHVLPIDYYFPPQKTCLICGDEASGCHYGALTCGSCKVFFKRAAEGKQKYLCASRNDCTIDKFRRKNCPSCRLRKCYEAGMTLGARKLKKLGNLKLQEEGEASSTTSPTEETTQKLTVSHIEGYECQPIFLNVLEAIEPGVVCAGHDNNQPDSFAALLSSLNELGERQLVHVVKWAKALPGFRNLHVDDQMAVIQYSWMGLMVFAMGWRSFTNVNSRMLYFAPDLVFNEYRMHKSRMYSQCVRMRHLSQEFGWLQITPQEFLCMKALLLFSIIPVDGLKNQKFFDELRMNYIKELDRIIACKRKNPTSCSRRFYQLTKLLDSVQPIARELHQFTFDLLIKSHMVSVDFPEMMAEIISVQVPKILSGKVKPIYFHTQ

[6] = Apparent permeability across apical to basolateral side in RRCK cells; type: ADME, cell-based, Canis lupus familiaris, MDCKII-LE; conditions: dog, MDCK
[7] = Volume of distribution at steady state in rat; type: ADME; conditions: in vivo, read-out: Vdss
MDR1 (P-gp) = assay: Apparent permeability across apical to basolateral side in MDCK cells expressing human MDR1; type: ADME, cell-based, Canis lupus familiaris; conditions: dog

Chain of hERG (KCNH2) (Q12809 whole entry): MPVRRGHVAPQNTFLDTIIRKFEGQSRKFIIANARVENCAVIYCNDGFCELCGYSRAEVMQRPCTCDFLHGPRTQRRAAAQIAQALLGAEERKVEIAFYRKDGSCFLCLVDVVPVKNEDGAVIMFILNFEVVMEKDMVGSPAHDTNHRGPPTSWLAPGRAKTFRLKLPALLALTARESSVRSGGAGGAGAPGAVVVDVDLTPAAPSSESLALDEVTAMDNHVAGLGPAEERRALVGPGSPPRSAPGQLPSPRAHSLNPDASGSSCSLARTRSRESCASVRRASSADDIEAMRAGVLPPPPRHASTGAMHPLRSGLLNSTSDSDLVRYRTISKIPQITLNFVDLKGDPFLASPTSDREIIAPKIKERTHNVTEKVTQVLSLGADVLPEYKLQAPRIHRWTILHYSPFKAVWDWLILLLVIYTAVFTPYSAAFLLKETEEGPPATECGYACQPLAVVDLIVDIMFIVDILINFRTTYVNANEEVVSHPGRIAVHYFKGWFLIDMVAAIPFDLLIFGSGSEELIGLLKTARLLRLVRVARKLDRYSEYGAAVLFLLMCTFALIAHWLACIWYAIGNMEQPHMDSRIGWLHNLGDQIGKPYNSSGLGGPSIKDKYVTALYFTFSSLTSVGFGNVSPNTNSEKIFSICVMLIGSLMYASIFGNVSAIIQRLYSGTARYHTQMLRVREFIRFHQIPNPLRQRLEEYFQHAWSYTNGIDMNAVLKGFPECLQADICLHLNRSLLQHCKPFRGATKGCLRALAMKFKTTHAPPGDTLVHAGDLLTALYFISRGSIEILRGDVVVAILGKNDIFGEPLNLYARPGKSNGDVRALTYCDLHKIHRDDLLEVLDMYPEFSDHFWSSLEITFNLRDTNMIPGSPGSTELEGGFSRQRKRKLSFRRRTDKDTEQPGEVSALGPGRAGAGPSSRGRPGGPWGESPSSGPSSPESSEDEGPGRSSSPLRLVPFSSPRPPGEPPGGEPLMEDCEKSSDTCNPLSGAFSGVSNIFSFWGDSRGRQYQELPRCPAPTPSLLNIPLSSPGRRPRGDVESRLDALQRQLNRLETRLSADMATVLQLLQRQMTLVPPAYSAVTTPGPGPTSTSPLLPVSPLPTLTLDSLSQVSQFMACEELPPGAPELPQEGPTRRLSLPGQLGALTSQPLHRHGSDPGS

SMILES	inhibition at 3 µM (CYP1A2) [%]	IC50 [1] [nM]	microsomal CLint [2] [µL/min/mg]	microsomal CLint [3] [µL/min/mg]	inhibition at 10 µM (hERG (KCNH2)) [%]	fraction unbound [4]	solubility thermodynamic [5] [µM]	IC50 (Androgen receptor) [nM]	Papp A→B [6] [×10⁻⁶ cm/s]	Vd [7] [L/kg]	Papp A→B (MDR1 (P-gp)) [×10⁻⁶ cm/s]
O=C1COc2ccc(N3CCOC[C@H]3c3ccccc3)cc2N1	< 10	401	223	18.3	5	–	–	–	–	–	–
C[C@@H]1CN(c2ccc3c(n2)NC(=O)CO3)[C@H](c2ccccc2)CO1	< 20	–	–	–	–	0.15	17 (≈ 5.53 µg/mL)	> 10000	45.9	6.15	24.9
